Data reported in US7759345B2, “Antitumoral derivatives of ET-743” (priority 2001, dated 2010).

Tests used:
[1] = test system: Liver
Text: (§2) Toxicity was asssessed by the methods reported in Toxicology in Vitro, 15 (2001) 571-577, J. Luber Narod et al.: “Evaluation of the use of in vitro methodolodies as tools for screening new compounds for potential in vivo toxicity”.

[2] = test system: A-549; assay: Inhibition of cell growth by counting cells, A-549; assay type: cell-based, human; conditions: Homo sapiens, A549, 72 h; three days of incubation; read-out: IC50 (molar) A-549
Outline: (§1)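 1×10^4 cells/well, EMEM 5% FCS + test sample at several concs, duplicates; 3 d, 37° C, 5% CO2, humidified. Trypsinize, Coulter count; % growth vs untreated wells; IC50 from dose-response curve.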

[3] = test system: DU-145; assay: Inhibition of cell growth by counting cells, DU-145; assay type: cell-based, human; conditions: Homo sapiens, DU-145, 72 h; three days of incubation; read-out: IC50 (molar) DU-145
Outline: as §1

[4] = test system: Skeletal
Text: as §2

[5] = test system: HT-29; assay: Inhibition of cell growth by counting cells, HT-29; assay type: cell-based, human; conditions: Homo sapiens, HT-29, 72 h; three days of incubation; read-out: IC50 (molar) HT-29
Outline: as §1

[6] = test system: P-388; assay: Inhibition of cell growth by counting cells, P-388; assay type: cell-based, mouse; conditions: Mus musculus, P388, 72 h; three days of incubation; read-out: IC50 (molar) P-388
Outline: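 IC50 is the sample concentration halving growth, taken from dose-response curves of cell counts (Coulter counter, duplicate wells) relative to drug-free cultures. P-388 (DBA/2 mouse lymphoid neoplasm) cells plated at 1×10^4 per well in EMEM with 5% FCS plus test sample.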

[7] = test system: Myelo
Text: as §2

[8] = test system: Kidney
Text: as §2

[9] = test system: Heart
Text: as §2

[10] = test system: MEL-28; assay: Inhibition of cell growth by counting cells, MEL-28; assay type: cell-based, human; conditions: Homo sapiens, SK-MEL-28, 72 h; three days of incubation; read-out: IC50 (molar) MEL-28
Outline: as §1

Row | SMILES | Toxicity Data Liver [1] | IC50 [2] [pM] | IC50 [3] [pM] | Toxicity Data Skeletal [4] | IC50 [5] [pM] | IC50 [6] [pM] | Toxicity Data Myelo [7] | Toxicity Data Kidney [8] | Toxicity Data Heart [9] | IC50 [10] [pM]
1 | CCCCCCCC(=O)Oc1cc2c(cc1OC)[C@@]1(CS[C@@H]3c4c(OC(C)=O)c(C)c5c(c4[C@H](COC1=O)N1C3[C@H]3c4c(cc(C)c(OC)c4O)C[C@@H]([C@@H]1O)N3C)OCO5)NCC2 (stereo partly drawn) [Compound 59] | 2.53E-08 | 113 | 113 | 1.46E-07 | 113 | 113 | 4.18E-08 | 2.87E-08 | 8.14E-08 | 113
2 | COc1cc2c(cc1OC(=O)/C=C/c1ccccc1)CCN[C@]21CS[C@@H]2c3c(OC(C)=O)c(C)c4c(c3[C@H](COC1=O)N1C2[C@H]2c3c(cc(C)c(OC)c3O)C[C@@H]([C@@H]1O)N2C)OCO4 (stereo partly drawn) [Compound 61] | 1.32E-08 | 112 | 112 | 1.47E-08 | 112 | 112 | 1.69E-08 | 5.12E-09 | 2.76E-08 | 112
3 | C=CCOC(=O)Oc1cc2c(cc1OC)[C@@]1(CS[C@@H]3c4c(OC(C)=O)c(C)c5c(c4[C@H](COC1=O)N1C3[C@H]3c4c(cc(C)c(OC)c4O)C[C@@H]([C@@H]1O)N3C)OCO5)NCC2 (stereo partly drawn) [Compound 64] | 2.57E-08 | 592 |  | 1.66E-09 | 592 | 118 | 1.93E-08 | 1.77E-08 | 5.50E-08 | 592
4 | COc1cc2c(cc1OC(=O)OCc1ccccc1)CCN[C@]21CS[C@@H]2c3c(OC(C)=O)c(C)c4c(c3[C@H](COC1=O)N1C2[C@H]2c3c(cc(C)c(OC)c3O)C[C@@H]([C@@H]1O)N2C)OCO4 (stereo partly drawn) [Compound 65] | 5.30E-09 | 112 | 112 | 3.77E-09 | 112 | 112 | 1.70E-08 | 3.15E-09 | 9.00E-09 | 112
5 | CCOc1cc2c(cc1OC)[C@@]1(CS[C@@H]3c4c(OC(C)=O)c(C)c5c(c4[C@H](COC1=O)N1C3[C@H]3c4c(cc(C)c(OC)c4O)C[C@@H]([C@@H]1O)N3C)OCO5)NCC2 (stereo partly drawn) [Compound 68] | 1.76E-08 | 633 |  | 1.27E-08 | 633 |  | 1.89E-08 | 5.10E-09 | 1.13E-08 | 
6 | C=CCOc1cc2c(cc1OC)[C@@]1(CS[C@@H]3c4c(OC(C)=O)c(C)c5c(c4[C@H](COC1=O)N1C3[C@H]3c4c(cc(C)c(OC)c4O)C[C@@H]([C@@H]1O)N3C)OCO5)NCC2 (stereo partly drawn) [Compound 70] | 3.16E-08 | 125 | 125 | 3.67E-08 | 125 | 125 | 6.61E-08 | 1.07E-07 | 2.20E-07 | 125
7 | COc1cc2c(cc1OC(=O)[C@H](C)NC(=O)OC(C)(C)C)CCN[C@]21CS[C@@H]2c3c(OC(C)=O)c(C)c4c(c3[C@H](COC1=O)N1C2[C@H]2c3c(cc(C)c(OC)c3O)C[C@@H]([C@@H]1O)N2C)OCO4 (stereo partly drawn) [Compound 79] | 2.28E-08 | 107 |  | 2.75E-09 | 107 |  | 1.35E-08 | 1.74E-08 | 3.46E-08 | 
8 | COc1cc2c(cc1OC(=O)OC(C)(C)C)CCN[C@]21CS[C@@H]2c3c(OC(C)=O)c(C)c4c(c3[C@H](COC1=O)N1C2[C@H]2c3c(cc(C)c(OC)c3OC(=O)OC(C)(C)C)C[C@@H]([C@@H]1O)N2C)OCO4 (stereo partly drawn) [Compound 86] | 1.47E-08 | 520 | 520 | 3.88E-08 | 520 | 520 | 8.35E-08 | 1.37E-08 | 8.16E-08 | 520
9 | CCN1CCc2cc(O)c(OC)cc2[C@@]12CS[C@@H]1c3c(OC(C)=O)c(C)c4c(c3[C@H](COC2=O)N2C1[C@H]1c3c(cc(C)c(OC)c3O)C[C@@H]([C@@H]2O)N1C)OCO4 (stereo partly drawn) [Compound 94] | 1.24E-08 | 152 |  | 1.44E-09 | 152 | 152 | 1.13E-08 | 3.49E-09 | 6.66E-08 | 152
10 | COc1cc2c(cc1O)CCN[C@]21CS[C@@H]2c3c(OC(C)=O)c(C)c4c(c3[C@H](COC1=O)N1C2[C@H]2c3c(cc(C)c(OC)c3OC)C[C@@H]([C@@H]1O)N2C)OCO4 (stereo partly drawn) [Compound 98] | 4.21E-08 | 129 |  | 1.24E-08 | 129 |  | 3.79E-08 | 1.08E-06 | 4.98E-08 | 
11 | COc1cc2c(cc1OC(=O)C(F)(F)F)CCN[C@]21CS[C@@H]2c3c(OC(C)=O)c(C)c4c(c3[C@H](COC1=O)N1C2[C@H]2c3c(cc(C)c(OC)c3O)C[C@@H]([C@@H]1O)N2C)OCO4 (stereo partly drawn) [Compound 104] | 4.16E-09 | 583 | 583 | 4.10E-07 | 583 | 117 | 1.93E-08 | 2.67E-09 | 3.44E-09 | 583
12 | COc1cc2c(cc1O)CCN[C@]21CS[C@@H]2c3c(OC(=O)/C=C/c4ccccc4)c(C)c4c(c3[C@H](COC1=O)N1C2[C@H]2c3c(cc(C)c(OC)c3O)C[C@@H]([C@@H]1O)N2C)OCO4 (stereo partly drawn) [Compound 161] | 8.58E-09 | 118 | 118 | 1.65E-08 | 118 | 118 | 2.27E-08 | 2.60E-09 | 1.13E-08 | 118
13 | C=CCOc1c(C)c2c(c3c1[C@H]1SC[C@]4(NCCc5cc(O)c(OC)cc54)C(=O)OC[C@@H]3N3C1[C@H]1c4c(cc(C)c(OC)c4O)C[C@@H]([C@@H]3O)N1C)OCO2 (stereo partly drawn) [Compound 183] | 3.03E-08 | 132 |  | 2.67E-08 | 132 |  | 2.39E-08 | 6.72E-03 | 3.72E-08 | 
14 | CCCCCCCC(=O)Oc1cc2c(cc1OC)[C@@]1(CS[C@@H]3c4c(OC(C)=O)c(C)c5c(c4[C@H](COC1=O)N1C3[C@@H]3N[C@@H](Cc4cc(C)c(OC)c(O)c43)[C@@H]1O)OCO5)NCC2 (stereo partly drawn) [Compound 213] | 3.93E-08 | 114 |  | 1.72E-07 | 114 |  | 2.70E-08 | 1.48E-08 | 1.82E-07 | 
